Measured values taken from paper PMC7168207, “Dibasic Derivatives of Phenylcarbamic Acid as Prospective Antibacterial Agents Interacting with Cytoplasmic Membrane” (Antibiotics, 2020).
Where “and” joins values, the source holds several entries; their conditions need not be identical. Identical values can stand only once. Like-named read-outs stand apart in the source and are kept apart here.

Legend:
[1] = test system: E. faecalis ATCC 29212; test: MIC, broth microdilution; format: cell-based, Enterococcus faecalis; conditions: Enterococcus faecalis, ATCC 29212 / ATCC 29213; EF = E. faecalis ATCC 29213
In short: (§1)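 Broth microdilution at 5 × 10^5 CFU/mL final inoculum, cation-adjusted Mueller–Hinton broth for staphylococci and brain heart infusion for enterococci, incubated aerobically overnight at 37 °C.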

[2] = test system: vancomycin-resistant enterococci VRE 342B; test: MIC, broth microdilution; format: cell-based, Enterococcus faecalis; conditions: Enterococcus, read-out: MICs
In short: as §1

[3] = test system: vancomycin-resistant enterococci VRE 368; test: MIC, broth microdilution; format: cell-based, Enterococcus faecalis; conditions: Enterococcus, read-out: MICs
In short: as §1

[4] = test system: vancomycin-resistant enterococci VRE 725B; test: MIC, broth microdilution; format: cell-based, Enterococcus faecalis; conditions: Enterococcus, read-out: MICs
In short: as §1

[5] = test system: human monocytic leukemia THP-1 cells; test: in vitro antiproliferative assay (WST-1); format: cell-based; conditions: Homo sapiens, THP-1, 24 h, read-out: Tox IC50
In short: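 THP-1 cells in serum-free RPMI 1640 treated with compounds (DMSO ≤0.1%) for 24 h at 37 °C, 5% CO2, triplicate; viability by WST-1 tetrazolium read-out. IC50 from dose-response curve.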

[6] = test system: S. aureus ATCC 29213; test: crystal violet uptake (membrane permeability); format: cell-based, Staphylococcus aureus; conditions: 64 µg/mL, 1 h; two-way ANOVA, Tukey's test, p < 0.05
Protocol: The alternation in membrane permeability was detected by crystal violet assay. Bacterial suspension treated by compounds 1f, 1g, and 1h (all 64 µg/mL) for 1 h was prepared. The uptake of crystal violet was expressed as a percentage compared to the original crystal violet solution.
The method of crystal violet uptake was used to study membrane alteration. Bacterial suspension was cultivated to log phase in CaMH and then harvested at 4500 rpm for 5 min. The cells were washed twice and resuspended in PBS containing 64 µg/mL of the tested compounds. […] A growth control without antibiotics and a control containing the same amount of DMSO as treated tubes were included. The tubes were cultivated at 37 °C for 1 h. After that, the tubes were centrifuged at 4500 rpm for 15 min and washed twice in PBS. The cells were resuspended in PBS containing crystal violet (10 µg/mL). After 15 min incubation at 37 °C and centrifugation (15 min, 4500 rpm), the absorbance of supernatant at 595 nm was measured. The experiment was repeated three times, and the results were averaged. The percentage of crystal violet uptake was counted according to the equation:(1) % of uptake = OD595 of sample/OD595 of crystal violet solution × 100

[7] = test system: S. aureus ATCC 29213 biofilm; test: biofilm susceptibility / eradication of preformed biofilm (MTT); format: cell-based, Staphylococcus aureus; conditions: for MBEC80 (minimum biofilm eradication concentration): 80% reduction of metabolic activity of preformed biofilm, 24 h
Protocol: The ability of compounds 1f, 1g, and 1h to inhibit biofilm growth and destroy the matured biofilm of S. aureus ATCC 29213 was investigated. The inhibitory activity was studied by the method with crystal violet. The activity to disrupt matured biofilm was evaluated as a decrease of metabolic activity using the MTT assay.
Biofilms were grown as described above but without the presence of the compounds. After 48 h of incubation at 37 °C, the contents of the wells were removed, and the plates were washed three times by sterile PBS. After washing, 100 µL of tested compounds in CaMH were added to the wells. […] A growth control containing 2.5% of DMSO in CaMH was included. The plates were incubated at 37 °C for 24 h, then the solutions of compounds were removed, and the plates were gently washed three times by sterile PBS. Bacterial viability was analyzed using 100 µL of 0.05 mg/mL MTT (3-(4,5-dimethylthiazol-2-yl)- 2,5-diphenyltetrazolium bromide) in PBS in each well. The plates with MTT were incubated at 37 °C for 1–2 h in darkness, until the blue formazan crystals appeared. MTT solution was removed and the plates were washed once by PBS. Crystals of formazan were dissolved using 17% sodium dodecysulphate in 40% dimethylformamid. The absorbance at 570 nm was measured and the percentage of eradication was counted according to the equation (3) % of eradication = 100 − OD570S/OD570C × 100 where OD570S is the absorbance of the sample at 570 nm and OD570C is the absorbance of the growth control at 570 nm. The minimum biofilm eradication concentration was the lowest concentration of the compound, which reduced the metabolic activity of the biofilm by 80% compared to the growth control. The experiment was made in duplicate and repeated at least three times.

[8] = parameters: method as in PMID 30274224; conditions: cited from earlier work

Structure (SMILES) | MIC [1] | MIC ([2]; VRE1 = VRE 342B) | MIC ([3]; VRE2 = VRE 368) | MIC ([4]; VRE3 = VRE 725B) | IC50 ([5]; THP-1 cells, WST-1, 24 h) | crystal violet uptake compared with 1% Tween 20 (positive control) [6] | MBEC80 (minimum biofilm eradication concentration) [7] | γ (surface tension, relative surface activity) [8] | concentration giving 80% degradation of preformed biofilm relative to MIC [7] | MIC ([2]; VRE) | MIC ([3]; VRE) | MIC ([4]; VRE) | IC50 [5]
CCCCCOc1cccc(NC(=O)OC(CN(CCC)CCC)CN2CCCC2)c1.Cl.Cl (centres unmarked) [1f, 1-[3-(dipropylammonio)-2-({[3-(pentyloxy)phenyl]carbamoyl}-oxy)propyl]pyrrolidinium dichloride] | 32 µg/mL and 63.2 µM | 16 µg/mL and 31.6 µM | 16 µg/mL and 31.6 µM | 16 µg/mL and 31.6 µM | 4.19 ± 0.54 µM | No statistically significant difference | 64 µg/mL | 0.06285 N/m |  |  |  |  | 
CCCCCCOc1cccc(NC(=O)OC(CN(CCC)CCC)CN2CCCC2)c1.Cl.Cl (centres unmarked) [1g, 1-[3-(dipropylammonio)-2-({[3-(hexyloxy)phenyl]carbamoyl}oxy)propyl]pyrrolidinium dichloride] | 16 µg/mL and 30.8 µM | 8 µg/mL and 15.4 µM | 8 µg/mL and 15.4 µM | 8 µg/mL and 15.4 µM | 3.5 ± 0.31 µM | No statistically significant difference | 16 µg/mL | 0.06105 N/m |  |  |  |  | 
CCCCCCCOc1cccc(NC(=O)OC(CN(CCC)CCC)CN2CCCC2)c1.Cl.Cl (centres unmarked) [1h, 1-[3-(Dipropylammonio)-2-({[3-(heptyloxy)phenyl]carbamoyl}oxy)propyl]pyrrolidinium dichloride] | 8 µg/mL and 15 µM | 4 µg/mL and 7.51 µM | 4 µg/mL and 7.51 µM | 4 µg/mL and 7.51 µM | 3.67 ± 0.01 µM | No statistically significant difference | 16 µg/mL | 0.05786 N/m | two-fold |  |  |  | 
CN[C@H](CC(C)C)C(=O)N[C@H]1C(=O)N[C@@H](CC(N)=O)C(=O)N[C@H]2C(=O)N[C@H]3C(=O)N[C@H](C(=O)N[C@H](C(=O)O)c4cc(O)cc(O)c4-c4cc3ccc4O)[C@H](O)c3ccc(c(Cl)c3)Oc3cc2cc(c3O[C@@H]2O[C@H](CO)[C@@H](O)[C@H](O)[C@H]2O[C@H]2C[C@](C)(N)[C@H](O)[C@H](C)O2)Oc2ccc(cc2Cl)[C@H]1O [VAN, vancomycin, reference compound] |  |  |  |  |  |  |  |  |  | 512 µg/mL and 353 µM | 512 µg/mL and 353 µM | 1020 µg/mL and 706 µM | > 30 µM
